From the supplement of paper PMC10307832

Assays:
Assay in all cases: relative viability (nuclei count vs DMSO), 5 days (fraction); higher = more cells survive
MIM1 = compound: CC1=CSC(=NC2CCCCC2)N1/N=C/C3=C(C(=C(C=C3)O)O)O [MIM1]
Procedure, shortened: (§1)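 Viability here means nuclei in treated wells divided by nuclei in vehicle wells, reported as the median across plates. Only plates with control CV below 25% and at least one doubling passed. Lung cancer cell lines in 1536-well plates were exposed to five √10-spaced library-drug doses for 5 days and counted from 4× Hoechst images in MetaXpress.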

Lenalidomide = compound: Nc1cccc2c1CN(C1CCC(=O)NC1=O)C2=O [Lenalidomide]
Procedure, shortened: as §1

Luminespib = compound: CCNC(=O)c1noc(-c2cc(C(C)C)c(O)cc2O)c1-c1ccc(CN2CCOCC2)cc1 [Luminespib]
Procedure, shortened: as §1

Nilotinib = compound: Cc1cn(-c2cc(NC(=O)c3ccc(C)c(Nc4nccc(-c5cccnc5)n4)c3)cc(C(F)(F)F)c2)cn1 [Nilotinib]
Procedure, shortened: as §1

Saracatinib = compound: CN1CCN(CCOc2cc(OC3CCOCC3)c3c(Nc4c(Cl)ccc5c4OCO5)ncnc3c2)CC1 [Saracatinib]
Procedure, shortened: as §1

Row | Cell Line | relative viability (MIM1; 0.2 µM) | relative viability (MIM1; 0.6325 µM) | relative viability (MIM1; 2 µM) | relative viability (MIM1; 6.325 µM) | relative viability (MIM1; 20 µM) | relative viability (Lenalidomide; 0.253 µM) | relative viability (Lenalidomide; 0.8 µM) | relative viability (Lenalidomide; 2.53 µM) | relative viability (Lenalidomide; 8 µM) | relative viability (Luminespib; 0.002 µM) | relative viability (Luminespib; 0.006325 µM) | relative viability (Luminespib; 0.01 µM, anchor plate) | relative viability (Luminespib; 0.02 µM) | relative viability (Luminespib; 0.06325 µM) | relative viability (Luminespib; 0.2 µM) | relative viability (Nilotinib; 0.001 µM) | relative viability (Nilotinib; 0.003162 µM) | relative viability (Nilotinib; 0.01 µM) | relative viability (Nilotinib; 0.03162 µM) | relative viability (Nilotinib; 0.1 µM) | relative viability (Saracatinib; 0.02 µM) | relative viability (Saracatinib; 0.2 µM) | relative viability (Saracatinib; 0.6325 µM) | relative viability (Saracatinib; 2 µM)
1 | LU99A | 0.995 | 0.909 | 0.949 | 0.802 | 0.323 | 0.919 | 0.902 | 1.05 | 0.601 | 1.05 | 0.94 | 0.247 | 0.508 | 0.241 | 0.124 | 0.892 | 1.02 | 0.919 | 0.831 | 0.558 | 0.983 | 0.86 | 0.853 | 0.757
2 | LXF-289 | 1.04 | 0.741 | 1.04 | 0.737 | 0.503 | 0.981 | 1.03 | 1.11 | 1.07 | 0.974 | 0.979 | 0.681 | 1.09 | 0.85 | 0.195 | 0.937 | 1.19 | 1.15 | 0.96 | 0.576 | 0.997 | 0.944 | 1.02 | 1.01
3 | NCI-H23 | 0.99 | 0.52 | 0.798 | 0.523 | 0.209 | 0.922 | 0.91 | 1.18 | 0.764 | 0.953 | 0.932 | 0.22 | 0.663 | 0.13 | 0.141 | 0.963 | 0.899 | 1.15 | 0.668 | 0.74 | 1.12 | 0.794 | 0.988 | 0.739
4 | NCI-H322M | 0.964 | 0.895 | 0.906 | 0.826 | 0.522 | 0.97 | 0.953 | 1.02 | 0.918 | 0.921 | 0.883 | 0.918 | 0.764 | 0.426 | 0.318 | 1.03 | 0.962 |  | 1.06 | 1.05 | 0.969 | 0.886 | 0.696 | 0.365
5 | NCI-H358 | 1.01 | 0.953 | 0.86 | 0.429 | 0.237 | 0.908 | 1.01 | 0.893 | 1.08 | 0.966 | 0.887 | 0.352 | 0.512 | 0.115 | 0.111 | 0.831 | 1.18 | 1.12 | 0.836 | 0.776 | 0.938 | 0.822 | 0.568 | 0.409
6 | NCI-H441 | 1.04 | 0.754 | 0.994 | 0.492 | 0.207 | 0.967 | 0.869 | 1.21 | 0.808 | 0.93 | 1.01 | 0.345 | 0.926 | 0.133 | 0.129 | 0.927 | 1.4 | 1.21 | 0.724 | 0.938 | 0.99 | 0.896 | 1.23 | 0.884
7 | NCI-H460 | 0.988 | 0.994 | 0.827 | 0.45 | 0.124 | 0.984 | 0.956 | 1.04 | 1 | 1.02 | 0.952 | 0.0332 | 0.806 | 0.0356 | 0.0297 | 0.924 | 1.21 | 1.12 | 0.78 | 0.857 | 0.998 | 0.82 | 0.976 | 0.877
